Test system: Escherichia coli (E. coli)
Assay: Simple test for antimicrobial activity using E. coli based on JIS Z2801 (0.9% NaCl, fluorescent dye viability)
Assay type: cell-based
Conditions: Example 5, FIG. 8, Cu sample piece, 5 minutes after seeding
Source text: In this Example, effects of GSH, which is a biological reducing substance, on antimicrobial activity of copper and copper alloys were studied by a simple test for antimicrobial activity using E. coli based on the test for antimicrobial activity specified in JIS Z2801. As shown in FIG. 6(a), first, a copper (Cu) sample piece (15 mm square) was placed on the bottom surface of a glass container. Next, on the upper surface of the sample piece, 0.9% NaCl (−GSH) not containing GSH as a solvent or a 0.9% NaCl solution (+GSH) containing GSH at a concentration of 1.0 mM as a solvent was used to seed about 1.0×10^6 cells/50 μL of E. coli. This bacterial suspension was covered with a polyethylene (PE) sheet so as not to dry the bacterial suspension. Then, the glass container was placed under static culture condition of 35±1° C. The PE sheet was removed 0 minute (immediately after seeding), 5 minutes, and 10 minutes after seeding of E. coli, and 1 mL of 0.9% NaCl+0.1 mM EDTA-2Na was added to the bacterial suspension, and the bacterial suspension was collected by pipetting. A fluorescent dye was added to the collected bacterial suspension, and viability of E. coli was determined by measuring fluorescence intensity. In order to avoid a contact between the back surface of the Cu sample piece and the solution when collecting E. coli, the back surface of the Cu sample piece was coated with a thin silicone sheet in advance. […] GSH was added at a concentration of 0 mM (no addition), 1.0 mM, 2.0 mM, and 10.0 mM, and the results are shown in this order from the left. In FIG. 8, the longitudinal axis represents a ratio of bacterial viability (relative viability) normalized to the bacterial viability in the control test as 1. […] Note that the time from seeding of E. coli to collection of a bacterial suspension was set to 5 minutes.

## N[C@@H](CCC(=O)N[C@@H](CS)C(=O)NCC(=O)O)C(=O)O [GSH, Reduced glutathione]
GSH 1.0 mM
  bacterial viability (relative viability): decreased more than a case without GSH
GSH 2.0 mM
  bacterial viability (relative viability): equivalent or greater than the result without GSH
GSH 10.0 mM
  bacterial viability (relative viability): equivalent or greater than the result without GSH
